{"source": "patent US8252832B2", "about": "“Kinesin inhibitors as cancer therapeutics” (Novartis AG, priority 2007, dated 2012)", "system": "panel of cell lines derived from hematological malignancies", "assay": "Cell survival assay, CellTiter-Glo readout after 48 hours, hematological panel", "type": "cell-based", "set-up": "key to Differential: panel average log(GI50) minus cell line log(GI50); positive = more sensitive", "description": "Compound IIa was tested against a panel of cell lines derived from hematological malignancies in a cell survival assay using CellTiter-Glo® as a readout after 48 hours in the presence of compound. Table 18 lists the type of hematological malignancy, the name of the sample, its GI50 (concentration needed to achieve 50% growth inhibition) value in the assay, the logarithm of the GI50 (log(GI50), and the relative sensitivity of each sample (Differential). The differential is calculated by subtracting the log(GI50) for each cell line from the average log(GI50) across the entire panel (0.236 in this case); a positive value indicates a sample that is more sensitive than average, whereas a negative value indicates a sample that is less sensitive than average.", "note": "Read-outs that look alike come from different tables or passages of the source."}
{"smiles": "CC(C)(C)[C@H](c1nc(-c2cc(F)ccc2F)cn1Cc1ccccc1)N(CC[C@H](N)CF)C(=O)CO", "note": "[Compound IIa]", "values": [{"measurement": "GI50", "setting": "Homo sapiens, MM1.S, 48 h, MM1-S (MM), read-out: GI50", "result": 0.24, "unit": "nM"}, {"measurement": "GI50", "setting": "Homo sapiens, MM1.S, 48 h, MM1-S (MM), read-out: Log(GI50) (converted)", "result": 0.24, "unit": "nM"}, {"measurement": "GI50", "setting": "Homo sapiens, MOLT-3, 48 h, MOLT-3 (ALL), read-out: GI50", "result": 0.34, "unit": "nM"}, {"measurement": "GI50", "setting": "Homo sapiens, MOLT-3, 48 h, MOLT-3 (ALL), read-out: Log(GI50) (converted)", "result": 0.335, "unit": "nM"}, {"measurement": "GI50", "setting": "Homo sapiens, MOLT-4, 48 h, MOLT-4 (ALL), read-out: GI50", "result": 0.33, "unit": "nM"}, {"measurement": "GI50", "setting": "Homo sapiens, MOLT-4, 48 h, MOLT-4 (ALL), read-out: Log(GI50) (converted)", "result": 0.331, "unit": "nM"}, {"measurement": "GI50", "setting": "Homo sapiens, MV4-11, 48 h, MV4, 11 (AML), read-out: GI50", "result": 0.08, "unit": "nM"}, {"measurement": "GI50", "setting": "Homo sapiens, MV4-11, 48 h, MV4, 11 (AML), read-out: Log(GI50) (converted)", "result": 0.0769, "unit": "nM"}, {"measurement": "GI50", "setting": "Homo sapiens, NALM-6, 48 h, NALM-6 (ALL), read-out: GI50", "result": 0.14, "unit": "nM"}, {"measurement": "GI50", "setting": "Homo sapiens, NALM-6, 48 h, NALM-6 (ALL), read-out: Log(GI50) (converted)", "result": 0.135, "unit": "nM"}, {"measurement": "GI50", "setting": "Homo sapiens, NCI-H929, 48 h, H929 (MM), read-out: GI50", "result": 0.34, "unit": "nM"}, {"measurement": "GI50", "setting": "Homo sapiens, NCI-H929, 48 h, H929 (MM), read-out: Log(GI50) (converted)", "result": 0.335, "unit": "nM"}, {"measurement": "GI50", "setting": "Homo sapiens, OPM-2, 48 h, OPM2 (MM), read-out: GI50", "result": 0.14, "unit": "nM"}, {"measurement": "GI50", "setting": "Homo sapiens, OPM-2, 48 h, OPM2 (MM), read-out: Log(GI50) (converted)", "result": 0.135, "unit": "nM"}, {"measurement": "GI50", "setting": "Homo sapiens, RPMI-8226, 48 h, RPMI8226 (MM), read-out: GI50", "result": 0.26, "unit": "nM"}, {"measurement": "GI50", "setting": "Homo sapiens, RPMI-8226, 48 h, RPMI8226 (MM), read-out: Log(GI50) (converted)", "result": 0.262, "unit": "nM"}, {"measurement": "GI50", "setting": "Homo sapiens, RS4-11, 48 h, RS4, 11 (ALL), read-out: GI50", "result": 0.1, "unit": "nM"}, {"measurement": "GI50", "setting": "Homo sapiens, RS4-11, 48 h, RS4, 11 (ALL), read-out: Log(GI50) (converted)", "result": 0.1, "unit": "nM"}, {"measurement": "GI50", "setting": "Homo sapiens, Ramos, 48 h, Ramos (NHL), read-out: GI50", "result": 0.16, "unit": "nM"}, {"measurement": "GI50", "setting": "Homo sapiens, Ramos, 48 h, Ramos (NHL), read-out: Log(GI50) (converted)", "result": 0.16, "unit": "nM"}, {"measurement": "GI50", "setting": "Homo sapiens, SET-2, 48 h, SET-2 (AML), read-out: GI50", "result": 0.34, "unit": "nM"}, {"measurement": "GI50", "setting": "Homo sapiens, SET-2, 48 h, SET-2 (AML), read-out: Log(GI50) (converted)", "result": 0.34, "unit": "nM"}, {"measurement": "GI50", "setting": "Homo sapiens, SU-DHL-1, 48 h, SuDHL-1 (NHL), read-out: GI50", "result": 10, "unit": "nM"}, {"measurement": "GI50", "setting": "Homo sapiens, SU-DHL-1, 48 h, SuDHL-1 (NHL), read-out: Log(GI50) (converted)", "result": 10, "unit": "nM"}, {"measurement": "GI50", "setting": "Homo sapiens, SU-DHL-4, 48 h, SuDHL-4 (NHL), read-out: GI50", "result": 0.45, "unit": "nM"}, {"measurement": "GI50", "setting": "Homo sapiens, SU-DHL-4, 48 h, SuDHL-4 (NHL), read-out: Log(GI50) (converted)", "result": 0.447, "unit": "nM"}, {"measurement": "GI50", "setting": "Homo sapiens, SU-DHL-6, 48 h, SuDHL-6 (NHL), read-out: GI50", "result": 0.16, "unit": "nM"}, {"measurement": "GI50", "setting": "Homo sapiens, SU-DHL-6, 48 h, SuDHL-6 (NHL), read-out: Log(GI50) (converted)", "result": 0.16, "unit": "nM"}, {"measurement": "GI50", "setting": "Homo sapiens, SUP-B15, 48 h, SUP-B15 (ALL), read-out: GI50", "result": 0.19, "unit": "nM"}, {"measurement": "GI50", "setting": "Homo sapiens, SUP-B15, 48 h, SUP-B15 (ALL), read-out: Log(GI50) (converted)", "result": 0.19, "unit": "nM"}, {"measurement": "GI50", "setting": "Homo sapiens, SUP-T1, 48 h, SUP-T1 (NHL), read-out: GI50", "result": 5.57, "unit": "nM"}, {"measurement": "GI50", "setting": "Homo sapiens, SUP-T1, 48 h, SUP-T1 (NHL), read-out: Log(GI50) (converted)", "result": 5.57, "unit": "nM"}, {"measurement": "GI50", "setting": "Homo sapiens, U-937, 48 h, U937 (NHL), read-out: GI50", "result": 0.2, "unit": "nM"}, {"measurement": "GI50", "setting": "Homo sapiens, U-937, 48 h, U937 (NHL), read-out: Log(GI50) (converted)", "result": 0.2, "unit": "nM"}, {"measurement": "Differential", "setting": "HuT78 (NHL)", "result": 0.195}, {"measurement": "Differential", "setting": "INA-6 (MM)", "result": 0.555}, {"measurement": "GI50", "setting": "INA-6, 48 h, INA-6 (MM), read-out: GI50", "result": 0.12, "unit": "nM"}, {"measurement": "GI50", "setting": "INA-6, 48 h, INA-6 (MM), read-out: Log(GI50) (converted)", "result": 0.12, "unit": "nM"}, {"measurement": "Differential", "setting": "K562 (CML)", "result": 0.314}, {"measurement": "Differential", "setting": "KM-H2 (HL)", "result": 0.266}, {"measurement": "Differential", "setting": "KMS11 (MM)", "result": "−0.050"}, {"measurement": "Differential", "setting": "KMS11-Luc (MM)", "result": 0.172}, {"measurement": "Differential", "setting": "KMS12 (MM)", "result": 0.172}, {"measurement": "Differential", "setting": "KMS18-Luc (MM)", "result": "−0.080"}, {"measurement": "Differential", "setting": "KMS26 (MM)", "result": 0.254}, {"measurement": "GI50", "setting": "KMS-26, 48 h, KMS26 (MM), read-out: GI50", "result": 0.24, "unit": "nM"}, {"measurement": "GI50", "setting": "KMS-26, 48 h, KMS26 (MM), read-out: Log(GI50) (converted)", "result": 0.24, "unit": "nM"}, {"measurement": "Differential", "setting": "Karpas-299 (NHL)", "result": 0.333}, {"measurement": "Differential", "setting": "Karpas-299-Luc (NHL)", "result": "−1.671"}, {"measurement": "Differential", "setting": "Karpas-422 (NHL)", "result": "−1.077"}, {"measurement": "Differential", "setting": "Kasumi-1 (AML)", "result": "−0.010"}, {"measurement": "Differential", "setting": "L363 (MM)", "result": 0.520}, {"measurement": "Differential", "setting": "L428 (HL)", "result": "−1.667"}, {"measurement": "Differential", "setting": "L-1236 (HL)", "result": "−0.930"}, {"measurement": "GI50", "setting": "L-1236, 48 h, L-1236 (HL), read-out: GI50", "result": 3.67, "unit": "nM"}, {"measurement": "GI50", "setting": "L-1236, 48 h, L-1236 (HL), read-out: Log(GI50) (converted)", "result": 3.66, "unit": "nM"}, {"measurement": "Differential", "setting": "LP1 (MM)", "result": 0.322}, {"measurement": "Differential", "setting": "MHH-CALL-2 (ALL)", "result": 0.136}, {"measurement": "Differential", "setting": "MHH-CALL-3 (ALL)", "result": 0.333}, {"measurement": "Differential", "setting": "MHH-CALL-4 (ALL)", "result": "−1.366"}, {"measurement": "GI50", "setting": "MHHCALL4, 48 h, MHH-CALL-4 (ALL), read-out: GI50", "result": 10, "unit": "nM"}, {"measurement": "GI50", "setting": "MHHCALL4, 48 h, MHH-CALL-4 (ALL), read-out: Log(GI50) (converted)", "result": 10, "unit": "nM"}, {"measurement": "Differential", "setting": "MM1-S (MM)", "result": 0.254}, {"measurement": "Differential", "setting": "MM1-S-Luc (MM)", "result": 0.272}, {"measurement": "Differential", "setting": "MOLM13-Luc (AML)", "result": 0.279}, {"measurement": "Differential", "setting": "MOLT-3 (ALL)", "result": 0.109}, {"measurement": "Differential", "setting": "MOLT-4 (ALL)", "result": 0.114}, {"measurement": "Differential", "setting": "MUTZ-5 (ALL)", "result": "−1.366"}, {"measurement": "Differential", "setting": "MV4, 11 (AML)", "result": 0.747}, {"measurement": "Differential", "setting": "MV4, 11Luc (AML)", "result": 0.613}, {"measurement": "Differential", "setting": "NALM-6 (ALL)", "result": 0.504}, {"measurement": "Differential", "setting": "NALM-19 (ALL)", "result": 0.355}, {"measurement": "Differential", "setting": "OPM2 (MM)", "result": 0.504}, {"measurement": "Differential", "setting": "REH (ALL)", "result": 0.379}, {"measurement": "Differential", "setting": "RL (NHL)", "result": "−1.667"}, {"measurement": "Differential", "setting": "RPMI8226 (MM)", "result": 0.216}, {"measurement": "Differential", "setting": "RS4, 11 (ALL)", "result": 0.634}, {"measurement": "Differential", "setting": "Ramos (NHL)", "result": 0.430}, {"measurement": "Differential", "setting": "SEM-Luc (ALL)", "result": 0.458}, {"measurement": "Differential", "setting": "SET-2 (AML)", "result": 0.102}, {"measurement": "Differential", "setting": "SR (NHL)", "result": 0.591}, {"measurement": "Differential", "setting": "SUP-B15 (ALL)", "result": 0.355}, {"measurement": "Differential", "setting": "SUP-M2 (NHL)", "result": 0.379}, {"measurement": "GI50", "setting": "SUP-M2, 48 h, SUP-M2 (NHL), read-out: GI50", "result": 0.18, "unit": "nM"}, {"measurement": "GI50", "setting": "SUP-M2, 48 h, SUP-M2 (NHL), read-out: Log(GI50) (converted)", "result": 0.18, "unit": "nM"}, {"measurement": "Differential", "setting": "SUP-T1 (NHL)", "result": "−1.112"}, {"measurement": "Differential", "setting": "SuDHL-1 (NHL)", "result": "−1.366"}, {"measurement": "Differential", "setting": "SuDHL-4 (NHL)", "result": "−0.016"}, {"measurement": "Differential", "setting": "SuDHL-6 (NHL)", "result": 0.430}, {"measurement": "Differential", "setting": "TANOUE (ALL)", "result": "−1.366"}, {"measurement": "Differential", "setting": "U937 (NHL)", "result": 0.333}, {"measurement": "GI50", "setting": "UKE1, 48 h, UKE-1 (AML), read-out: GI50", "result": 0.18, "unit": "nM"}, {"measurement": "GI50", "setting": "UKE1, 48 h, UKE-1 (AML), read-out: Log(GI50) (converted)", "result": 0.175, "unit": "nM"}, {"measurement": "Differential", "setting": "UKE-1 (AML)", "result": 0.391}, {"measurement": "Differential", "setting": "YT (ALL)", "result": "−1.366"}]}
